According to patent US6180651A, “Diarylmethylidenefuran derivatives, processes for their preparation and their uses in therapeutics” (Bristol-Myers Squibb, priority 1996, dated 2001):

Assays:
carrageenin oedema = experiment: anti-inflammatory activity, carrageenin oedema test; format: in vivo; conditions: rat, oral; dose which induces 50% decrease in the volume of the oedema; read-out: Anti-inflammatory activity ID50
Procedure: (§1) The anti-inflarnmatory activity of the compounds of the Examples was evaluated by the carrageenin oedema method and the analgesic activity was evaluated by the kaolin arthritis method.
Anti-inflammatory Activity:
The anti-inflammatory activity is evaluated in the rat by the carrageenin oedema test. The product is administered orally at a rate of 2.5 ml/100 g (n=6 animals per dose) 2 h 30 min after oral hyperhydration (2.5 m/100 g); one hour after administration of the product, the oedema is induced by the plantar subcutaneous injection of 2% aqueous carrageenin solution. The results are expressed as the ID50, the dose in mg/kg which induces 50% decrease in the volume of the oedema, calculated by linear regression using the maximum oedema volume obtained for each product tested.

kaolin arthritis = experiment: analgesic activity, kaolin arthritis test; format: in vivo; conditions: rat, oral; dose which induces 50% decrease of the maximum quotation in the control batch; read-out: Analgesic activity DE50
Procedure: as §1
The analgesic activity is evaluated in the rat by the kaolin arthritis test. Thirty minutes after the intra-articular administration of 10% aqueous kaolin suspension, the product is administered orally at a rate of 1 ml/100 g (n=10 animals per dose). The results are expressed as DE50, the dose in mg/kg which induces 50% decrease of the maximum quotation in the control batch, calculated by linear regression.

COX-2 = target: T1, COX-2 (Ovis aries, UniProt P79208); experiment: inhibition of COX-2 enzymatic activity (PGE2 by EIA); format: biochemical, ewe; conditions: for IC50: purified enzyme from ewe placenta, arachidonic acid 4 μM, n=1 to 4 determinations; for Selectivity COX-1/COX-2 ratio: ratio of IC50 COX-1 / IC50 COX-2
T1 construct: purified enzyme from ewe placenta; from tissue; host or cells: ewe placenta (purified enzyme)
T1 sequence (P79208 17-603): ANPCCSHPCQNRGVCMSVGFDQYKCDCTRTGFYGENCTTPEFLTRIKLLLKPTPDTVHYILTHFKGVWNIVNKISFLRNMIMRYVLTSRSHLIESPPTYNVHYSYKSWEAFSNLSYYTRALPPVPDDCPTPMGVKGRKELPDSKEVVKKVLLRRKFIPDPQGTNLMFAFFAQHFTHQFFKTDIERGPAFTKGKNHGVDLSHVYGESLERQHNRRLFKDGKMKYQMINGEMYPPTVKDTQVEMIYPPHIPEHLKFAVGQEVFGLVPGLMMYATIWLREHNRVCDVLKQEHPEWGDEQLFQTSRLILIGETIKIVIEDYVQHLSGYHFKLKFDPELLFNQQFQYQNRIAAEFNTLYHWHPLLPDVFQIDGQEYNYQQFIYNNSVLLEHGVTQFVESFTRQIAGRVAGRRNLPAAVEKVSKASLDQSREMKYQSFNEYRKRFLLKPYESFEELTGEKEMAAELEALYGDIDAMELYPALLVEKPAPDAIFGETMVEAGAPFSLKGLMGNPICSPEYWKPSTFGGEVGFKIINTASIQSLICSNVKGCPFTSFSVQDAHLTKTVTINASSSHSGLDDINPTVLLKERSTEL
Procedure: (§2) Inhibition of the COX-1 and COX-2 Enzymatic Activities The test molecule is preincubated for 10 minutes at 25° C. with 2 U of COX-1 (purified enzyme from ram seminal vesicles) or 1 U of COX-2 (purified enzyme from ewe placenta). Arachidonic acid (6 μM for COX-1, 4 μM for COX-2) is added to the reaction medium and incubation is carried out for 5 minutes at 25° C. When incubation has ended, the enzymatic reaction is stopped by the addition of 1 N HCl and the PGE2 produced is determined by EIA. The results are expressed as IC50, the concentration in nM which corresponds to 50% inhibition of the maximal enzymatic activity on the COX-1 and COX-2 (n=1 to 4 determinations).

COX-1 = target: T2, COX-1 (Ovis aries, UniProt P05979); experiment: inhibition of COX-1 enzymatic activity (PGE2 by EIA); format: biochemical; conditions: purified enzyme from ram seminal vesicles; arachidonic acid 6 μM; n=1 to 4 determinations
T2 construct: purified enzyme from ram seminal vesicles; from tissue; host or cells: ram seminal vesicles (purified enzyme)
T2 sequence (P05979 25-600): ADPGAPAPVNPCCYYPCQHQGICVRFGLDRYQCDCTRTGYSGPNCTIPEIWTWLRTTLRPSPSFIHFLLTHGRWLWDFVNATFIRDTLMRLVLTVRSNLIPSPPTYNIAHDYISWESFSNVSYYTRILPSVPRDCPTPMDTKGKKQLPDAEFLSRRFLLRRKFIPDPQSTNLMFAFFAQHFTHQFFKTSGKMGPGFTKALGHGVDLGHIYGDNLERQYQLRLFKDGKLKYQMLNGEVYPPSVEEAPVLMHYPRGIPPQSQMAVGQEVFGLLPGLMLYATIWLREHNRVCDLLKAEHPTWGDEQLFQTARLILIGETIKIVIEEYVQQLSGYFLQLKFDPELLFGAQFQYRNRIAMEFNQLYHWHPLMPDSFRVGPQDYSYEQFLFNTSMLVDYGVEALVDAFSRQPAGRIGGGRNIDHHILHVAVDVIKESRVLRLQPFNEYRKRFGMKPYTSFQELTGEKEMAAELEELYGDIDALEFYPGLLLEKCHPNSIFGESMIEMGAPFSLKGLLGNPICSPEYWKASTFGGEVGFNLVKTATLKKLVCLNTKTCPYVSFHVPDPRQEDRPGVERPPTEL
Procedure: as §2

IC50 (COX-2) | Selectivity COX-1/COX-2 ratio (COX-2) | IC50 (COX-1) | Compound | ED50 (carrageenin oedema) | ED50 (kaolin arthritis)
610 nM | > 164 | > 100000 nM | CS(=O)(=O)c1ccc(/C(=C2\CCOC2=O)c2cccc(F)c2)cc1 [13 (Z isomer), (Z)-3-[1-(3-fluorophenyl)-1-(4-methanesulphonylphenyl)methylidene]dihydrofuran-2-one] | 3.9 mg/kg | 14.1 mg/kg
132 ± 32 nM | 555 | 73200 nM | CS(=O)(=O)c1ccc(/C(=C2\CCOC2=O)c2ccc(Cl)c(Cl)c2)cc1 [18 (Z isomer), (Z)-3-[1-(3,4-Dichlorophenyl)-1-(4-methanesulphonylphenyl)-methylidene]dihydrofuran-2-one] | > 30 mg/kg | 6.1 mg/kg
627 nM | > 159 | > 100000 nM | CS(=O)(=O)c1ccc(/C(=C2/CCOC2=O)c2cccc(Cl)c2)cc1 [23 (E), (E)-3-[1-(3-chlorophenyl)-1-(4-methanesulphonylphenyl)methyl-idene]-dihydrofuran-2-one] |  | 
18400 nM | > 0.5 | > 10000 nM | CS(=O)(=O)c1ccc(/C(=C2\CCOC2=O)c2ccccc2)cc1 [28 (E isomer), (E)-3-[1-Phenyl-1-(4-methanesulphonylphenyl)methylidene]-dihydrofuran-2-one] | 10.1 mg/kg | 26.1 mg/kg
710 nM | > 141 | > 100000 nM | CS(=O)(=O)c1ccc(/C(=C2\CCOC2=O)c2ccc(F)c(F)c2)cc1 [54 (Z isomer), (Z)-3-[1-(3,4-Difluorophenyl)-1-(4-methanesulphonylphenyl)-methylidene]dihydrofuran-2-one] | > 30 mg/kg | 10.8 mg/kg
296 ± 107 nM | 274 | 81000 nM | NS(=O)(=O)c1ccc(/C(=C2\CCOC2=O)c2ccc(F)cc2)cc1 [60 (E isomer), (E)-4-[(4-fluorophenyl)-(2-oxo-dihydrofuran-3-ylidene)methyl]benzenesulphonamide] | 1.7 mg/kg | 20.9 mg/kg
518 nM | > 193 | > 100000 nM | CS(=O)(=O)c1ccc(/C(=C2\CCOC2=O)c2cc(F)cc(F)c2)cc1 [80 (Z isomer), (Z)-3-[1-(3,5-difluorophenyl)-1-(4-methanesulphonylphenyl)methylidene]-dihydro-furan-2-one] | 4.8 mg/kg | 5.8 mg/kg
205 ± 35 nM | 1510 | 309000 ± 27500 nM | CS(=O)(=O)c1ccc(/C(=C2\CCOC2=O)c2ccc(F)c(Cl)c2)cc1 [95 (Z isomer), (Z)-3-[1-(3-chloro-4-fluorophenyl)-1-(4-methanesulphonylphenyl)methylidene]-dihydrofuran-2-one] | 1.6 mg/kg | 5.8 mg/kg
166 nM | 373 | 62000 nM | CS(=O)(=O)c1ccc(/C(=C2\CCOC2=O)c2ccc(Br)cc2)cc1 [100 (Z isomer), (Z)-3-[1-(4-bromophenyl)-1-(4-methanesulphonylphenyl)methylidene]-dihydro-furan-2-one] | 3.6 mg/kg | 
131 ± 19 nM | 349 | 45700 nM | Cc1ccc(/C(=C2/CCOC2=O)c2ccc(S(N)(=O)=O)cc2)cc1F [130 (Z isomer), (Z)-4-[(3-fluoro-4-methylphenyl)-(2-oxo-dihydrofuran-3-ylidene)methyl]benzenesulphonamide] | 2 mg/kg | 2.4 mg/kg

The remaining lines, values behind:

Compound | IC50 (COX-2) | Selectivity COX-1/COX-2 ratio (COX-2) | IC50 (COX-1) | ED50 (carrageenin oedema) | ED50 (kaolin arthritis)
CS(=O)(=O)c1ccc(/C(=C2/CCOC2=O)c2ccc(Cl)cc2)cc1 [8 (E isomer), (E)-3-[1-(4-chlorophenyl)-1-(4-methanesulphonylphenyl)methylidene]dihydrofuran-2-one] |  |  |  | > 30 mg/kg | 
CS(=O)(=O)c1ccc(/C(=C2\CCOC2=O)c2cccc(Cl)c2)cc1 [23 (Z isomer), (Z)-3-[1-(3-Chlorophenyl)-1-(4-methanesulphonylphenyl)-methylidene]dihydrofuran-2-one] |  |  |  | 9.3 mg/kg | 7.2 mg/kg
CC1(C)C/C(=C(/c2ccc(F)cc2)c2ccc(S(C)(=O)=O)cc2)C(=O)O1 [31 (E isomer), (E)-5,5-Dimethyl-3-[1-(4-fluorophenyl)-1-(4-methanesulphonylphenyl)methylidene]dihydrofuran-2-one] | 780 nM | > 128 | > 100000 nM | 3.1 mg/kg | 14.2 mg/kg
CCC1C/C(=C(/c2ccc(F)cc2)c2ccc(S(C)(=O)=O)cc2)C(=O)O1 (stereo not drawn) [34 (E isomer), (E)-5-Ethyl-3-[1-(4-fluorophenyl)-1-(4-methanesulphonylphenyl)methylidene]dihydrofuran-2-one] | 694 nM | > 144 | > 100000 nM |  | 38.8 mg/kg
Cc1cccc(/C(=C2/CCOC2=O)c2ccc(S(C)(=O)=O)cc2)c1 [49 (Z isomer), (Z)-3-[1-(3-Methylphenyl)-1-(4-methanesulphonylphenyl)-methylidene]dihydrofuran-2-one] | 418 nM | > 239 | > 100000 nM | > 30 mg/kg | > 30 mg/kg
CS(=O)(=O)c1ccc(/C(=C2\CCOC2=O)c2cc(Cl)cc(Cl)c2)cc1 [70 (Z isomer), (Z)-3-[1-(3,5-dichlorophenyl)-1-(4-methanesulphonylphenyl)methylidene]-dihydro-furan-2-one] | 225 nM | > 444 | > 100000 nM | 5.5 mg/kg | 21.5 mg/kg
CS(=O)(=O)c1ccc(/C(=C2\CCOC2=O)c2ccc(F)cc2F)cc1 [75 (Z isomer), (Z)-3-[1-(2,4-difluorophenyl)-1-(4-methanesulphonylphenyl)methylidene]-dihydro-furan-2-one] |  |  |  | 4.6 mg/kg | 
Cc1ccc(/C(=C2/CCOC2=O)c2ccc(S(C)(=O)=O)cc2)cc1 [85 (E isomer), (E)-3-[1-(4-methylphenyl)-1-(4-methanesulphonylphenyl)methylidene]-dihydro-furan-2-one] | 350 nM | > 286 | > 100000 nM | > 30 mg/kg | > 30 mg/kg
CS(=O)(=O)c1ccc(/C(=C2\CCOC2=O)c2cccc(Br)c2)cc1 [90 (Z isomer), (Z)-3-[1-(3-bromophenyl)-1-(4-methanesulphonylphenyl)methylidene]-dihydro-furan-2-one] | 458 nM | > 218 | > 100000 nM | 17.2 mg/kg | 
